Assay: gradient 5% acetonitrile 3 min, to 50% in 2 min, to 85% in 15 min, held 3 min, 100 µL/min
Conditions: column: Zorbax Extend-C18 2.1 x 50 mm; eluents: water / acetonitrile, 0.1% formic acid
Outline: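 Retention times of pure standards were taken from adduct peaks that were selected by computer and manually inspected. Over 3 months, mixtures of ~100 molecules were run by HPLC–quadrupole time-of-flight mass spectrometry in positive and negative ionization mode. The Zorbax Extend-C18 column (2.1 × 50 mm, 1.8 μm) ran at 100 μL/min in water and acetonitrile, each containing 0.1% formic acid, with 40 μL dead volume and 900 μL dwell volume.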

Structure (SMILES) | RP-LC retention time
CCc1nnc(-c2cc(C)n(CC(=O)NC(C)c3ccccc3)c2C)o1 (centres undefined) | 805 s
CCc1noc(NC(C)=O)c1-c1ccc(C)c(S(=O)(=O)N2CCOCC2)c1 | 743 s
O=C(COCc1nnc(C(=O)Nc2cccc(Cl)c2)s1)NCCc1c[nH]c2ccccc12 | 930 s
Cc1noc(-c2ccc(OC3CN(C(=O)C(C)c4ccccc4)C3)cc2)n1 (centres undefined) | 934 s
CC1CCN(C(=O)c2cn(-c3ccc(-c4nc(C(C)(C)C)no4)cn3)cn2)CC1 | 1130 s
COc1ccc(-n2c(CSc3ncccn3)nnc2SCC(=O)NO)cc1 | 592 s
CC(C)OC(=O)Cn1nc2c(-c3nc(-c4ccc(Cl)cc4)no3)cccn2c1=O | 1040 s
CCC(C)NC(=O)c1ccc2c(c1)CCCN2S(C)(=O)=O (centres undefined) | 754 s
Cn1c(N2CCCC(C(=O)Nc3ccc4c(c3)OCCO4)C2)cc(=O)n(C)c1=O (centres undefined) | 663 s
O=C(c1ccc(OCC2CCCN2C(=O)CC2CCCCC2)cc1)N1CCOCC1 (centres undefined) | 829 s
CCC(C)N(CC(=O)N1CCc2sccc2C1COc1ccc(F)cc1)C(=O)COC (centres undefined) | 906 s
CC(C)(Oc1ccc(Cl)cc1)C(=O)Nc1c(-c2ccccc2)nc2ccccn12 | 783 s
Cc1ccc(C(=O)N2CCCC(COc3ccc(C(=O)NC(C)C)cc3)C2)cc1F (centres undefined) | 896 s
O=C(Cn1c(=O)c2cccn2c2ccc(F)cc21)NCCc1ccco1 | 774 s
COc1ccc(-c2nc(C)cc(C)c2CNC(=O)c2ccco2)cc1 | 585 s
Cc1ccc(NC(=O)Cn2cnc3nc(N4CCCC(C(=O)NC5CC5)C4)sc3c2=O)c(C)c1 (centres undefined) | 708 s
Cc1nc(N2CCCC2)ncc1-c1ccnc(N2CCN(c3ccccc3)CC2)n1 | 1100 s
Cc1ccc(NC(=O)C(=O)c2ccc[nH]2)cc1 | 894 s
COC(=O)C1=C(N)Oc2cc(C)n(CCN(C)C)c(=O)c2C1c1ccccc1F (centres undefined) | 616 s
Cc1ccc2nc(C)cc(C(=O)NC(C)C)c2c1 | 595 s
CN(C)[C@@H]1CN(C(=O)Cc2cccc3ccccc23)C[C@H]1CO | 546 s
CC1Oc2ccc(S(=O)(=O)N3CCC(C(=O)NCc4ccc(Cl)cc4)CC3)cc2NC1=O (centres undefined) | 846 s
Cn1ccc2ccn(CC(=O)NCc3ccc(Cl)cc3)c(=O)c21 | 768 s

Structure (SMILES) | RP-LC retention time
CC(=O)N1CCc2cc(C(=O)N3CCOCC3)ccc21 | 607 s
O=C(NCc1ccco1)c1ccc(OCc2nc(C3CC3)cs2)cc1 | 825 s
NC(=O)Cc1ccc(NS(=O)(=O)c2cccs2)cc1 | 604 s
COc1cc(C(=O)NCCc2c[nH]c3ccc(F)cc23)cc(OC)c1OC | 781 s
O=C(Cc1ccccc1)NCc1nc(-c2ccc(-c3csc(C4CC4)n3)cc2)no1 | 1040 s
Cc1ccc(S(=O)(=O)NCC2CCN(C(=O)Oc3ccccc3)CC2)s1 | 576 s
O=S1(=O)C[C@H](N2CCN(c3ncccn3)CC2)[C@@H](S(=O)(=O)c2cccs2)C1 | 719 s
O=C(NCCCn1c(C(F)(F)F)nc2cccnc21)Nc1cccc(F)c1 | 811 s
COc1cccc(NC(=O)Cn2nc3c(Oc4ccc(Cl)cc4)nccn3c2=O)c1 | 877 s
COc1ccc(-c2c(C(=O)NCCCN3CCOCC3)nc3ccccn23)cc1 | 594 s
Cc1cccc(-c2nnc(-c3nc(N4CCCCC4C)c4ccccc4n3)o2)c1 (centres undefined) | 1270 s
O=C(Cc1ccc(F)cc1)NCCCn1cccc1 | 746 s
CCc1ccc(-c2nc3ccc(C)cn3c2CN2CCC(F)(COC)CC2)cc1 | 642 s
COc1ccc(-c2c(C)noc2NC(C)=O)cc1S(=O)(=O)Nc1ccccc1F | 783 s
CC1CCN(S(=O)(=O)c2ccc3c(ccn3CCC(=O)N3CCN(c4ccccn4)CC3)c2)CC1 | 728 s
Cc1ccc(NC(=O)C2CCN(S(=O)(=O)c3cc(C(=O)N4CCCC4)cs3)CC2)cc1 | 830 s
CCOc1ccc(-c2noc(Cc3nnc(-c4cc(F)cc(F)c4)o3)n2)cc1 | 1100 s
COc1ccc(C2Cn3nnc(-c4nc(-c5ccc(OC)c(F)c5)no4)c3CO2)cc1 (centres undefined) | 1040 s
CCOc1ccccc1NC(=O)N1CCC(n2cnc3cccnc32)CC1 | 686 s
Cc1ccc(NC(=O)Cc2nnc(-c3cnccn3)o2)cc1Cl | 756 s
Cc1ccc2[nH]c(=O)c(CCC(=O)N(C)Cc3cn(C)nc3C)cc2c1 | 646 s
CSc1ccc(N2C=NS(=O)(=O)c3cccnc32)cc1 | 810 s
CCCN1CCN(C(=O)CN2C(=O)C3CCCCN3c3ccc(C(=O)N(C)C)cc32)CC1 (centres undefined) | 602 s

Structure (SMILES) | RP-LC retention time
O=C(Cn1nc2ccc(C(=O)NCc3ccccc3)cn2c1=O)NC1CCc2ccccc21 (centres undefined) | 766 s
Cn1nc(C(=O)N2CCCC2)c2c1CCN(C(=O)Nc1ccccc1)C2 | 704 s
CCCNC(=O)N1CCCCC1c1nc(C2CC2)n[nH]1 (centres undefined) | 610 s
Cc1ccc(NC(=O)CCNc2cnc3cnccn23)cc1F | 578 s
Cc1cccc(CCNC(=O)Cc2csc3nc(-c4ccc(C)c(C)c4)cn23)c1 | 911 s
CNC(=O)C1CN(S(=O)(=O)c2cccc(F)c2)CC12CCCC2 (centres undefined) | 778 s
Cc1ccc(-n2c(=O)c3c(cc(C)n3C)n(CC(=O)Nc3cccc(Br)c3)c2=O)cc1 | 883 s
CC(C)(C)NC(=O)N1CCC(CNC(=O)C(=O)Nc2cccc(N3CCCC3=O)c2)CC1 | 683 s
CCOC(=O)c1c(S(=O)(=O)N2CCC(C(=O)N3CCc4ccccc43)CC2)c(C)n(C)c1C | 913 s
COc1cc(NC(=O)N2CCN(C)c3ncccc32)cc(OC)c1OC | 584 s
COc1cc(NC(=O)N2CCC(CN3CC(C)CC(C)C3)CC2)cc(OC)c1OC (centres undefined) | 625 s
CCCc1cc(N2CCN(C(=O)c3nccc4ccccc34)CC2)nc2nncn12 | 619 s
Cn1c(C(=O)NCCCN2CCCCC2)cc2c(-c3cccs3)nn(-c3ccccc3)c21 | 746 s
COc1cccc(N2CCN(C(=O)CCc3nnc4c5cc(-c6ccccc6)nn5ccn34)CC2)c1 | 791 s
CCn1cc(C(=O)Nc2ccc(F)cc2)c2cccnc21 | 824 s
CCOC(=O)c1[nH]c(C)c(CN(Cc2ccco2)C(=O)Nc2ccccc2F)c1C | 976 s
COc1ccc(-c2nc(Cn3cnc4ccccc4c3=O)no2)c(OC)c1 | 765 s
O=C(Cn1c(=O)c2cccn2c2ccc(F)cc21)N1CCCCC1 | 795 s
O=C(C1CCCC1)N1CCC(CCOc2ccncc2)CC1 | 616 s
Cc1ccccc1CNC(=O)c1ccc2c(c1)nc1n2CCN(C2CCCCC2)C1=O | 836 s
CCOc1cccc2cc(C(=O)Nc3ccc4c(c3)C(=O)N(C)C4=O)oc12 | 906 s
CN(CCNC(=O)c1cccc(N2CCNC(c3ccccc3)C2)n1)C1CCCCC1 (centres undefined) | 573 s
COc1ccc(N2CC(c3nc(-c4ccc(C)cc4)no3)CC2=O)cc1Cl (centres undefined) | 1050 s

Structure (SMILES) | RP-LC retention time
CC(C)n1cnc(S(=O)(=O)N2CCCC(C(=O)Nc3ccc(F)cc3F)C2)c1 (centres undefined) | 792 s
CN1C(=O)NC2NCN(C)C2C1=O (centres undefined) | 576 s
CCCNC(=O)CC1CCN(C(=O)c2[nH]c(C)c(C(=O)OC)c2C)CC1 | 657 s
Cc1ccc(C2Cn3cnc(C(=O)N4CCC(C(=O)NCc5ccco5)CC4)c3CO2)cc1 (centres undefined) | 729 s
COc1cc(C(=O)N(Cc2ccc(C(C)C)cc2)C2CCS(=O)(=O)C2)cc(OC)c1OC (centres undefined) | 968 s
CC1CCC(NC(=O)c2nnc(-c3ccc(S(=O)(=O)N4CCCC4)cc3)o2)CC1 (centres undefined) | 1020 s
CCOC(=O)c1c(C)[nH]c(CCC(=O)NCCN2CCN(C)CC2)c1C | 579 s
CCn1nccc1C(=O)N1CCN(c2ncnc3c2CCC3)CC1 | 556 s
CC(CCc1ccco1)NC(=O)C1CCc2nc(N3CCCC3)ncc2C1 (centres undefined) | 620 s
CCc1cc(=O)n(CC(=O)Nc2ccc(F)cc2C)c(N2CCOCC2)n1 | 760 s
CC1CN(C(=O)CSc2nc(-c3ccco3)cc(C(F)(F)F)n2)CC(C)O1 (centres undefined) | 952 s
O=C(Nc1ccc(OC2CCNCC2)nc1)C1(c2ccccc2)CC1 | 646 s
Cc1nc(-c2cn(C(C)C)c3ncccc23)sc1C(=O)Nc1ccc2c(c1)OCCO2 | 1010 s
COc1cccc(-c2nc(-c3ccc(S(=O)(=O)N4CCC(C)CC4)cc3)no2)c1 | 1360 s
CCOC(=O)N1CCC2(CC1)OC(=O)C(C)=C2C(=O)Nc1ccc(F)cc1F | 840 s
CCN1CCN(C(=O)CN2C(=O)CCCc3cc(S(=O)(=O)N4CCC(C)CC4)ccc32)CC1 | 643 s
CC1(C)S[C@@H]2[C@H](NC(=O)Cc3ccccc3)C(=O)N2C1C(=O)O (some centres undefined) | 732 s
Cc1ccc(Cl)cc1NC(=O)N1CCc2nc(-c3ccccc3)ncc2C1 | 783 s
CS(=O)(=O)N1CCCC(C(=O)Nc2nccs2)C1 (centres undefined) | 627 s
Cc1ccc(CNC(=O)NCCC2CCN(S(=O)(=O)c3ccccc3)CC2)cc1 | 877 s
